The results in this text go back to PMC11954892, “β-Carotene alleviates substrate inhibition caused by asymmetric cooperativity” (Nature Communications, 2025).

Assay [1] concerns the target T1, NbUGT72AY1 (Nicotiana benthamiana, UniProt A0A8K1ZRH3).
T1 sequence (A0A8K1ZRH3 1-477): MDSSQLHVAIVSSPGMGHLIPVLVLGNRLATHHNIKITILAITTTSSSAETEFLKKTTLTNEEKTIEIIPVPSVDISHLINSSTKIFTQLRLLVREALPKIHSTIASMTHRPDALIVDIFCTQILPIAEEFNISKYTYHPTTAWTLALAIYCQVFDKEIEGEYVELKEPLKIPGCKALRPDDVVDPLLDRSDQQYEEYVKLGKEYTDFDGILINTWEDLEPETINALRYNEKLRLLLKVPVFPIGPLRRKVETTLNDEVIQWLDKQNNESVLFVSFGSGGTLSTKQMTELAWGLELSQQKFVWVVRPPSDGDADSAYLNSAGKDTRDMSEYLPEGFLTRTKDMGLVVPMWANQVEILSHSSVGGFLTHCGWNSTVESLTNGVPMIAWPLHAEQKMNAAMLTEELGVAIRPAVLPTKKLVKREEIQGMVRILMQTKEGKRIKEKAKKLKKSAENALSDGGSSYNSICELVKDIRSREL
Briefly: X-ray co-crystal structure (ternary complex with scopoletin). The class given is binding.

Assay [2] deals with T1, NbUGT72AY1. Briefly: UDP-Glo glucosyltransferase assay, purified enzyme (reactivation of substrate-inhibited enzyme). It is filed as biochemical. The arrangement: N-terminal GST tag.
For assay [3], the target named is T1, NbUGT72AY1. As to the kind of experiment: HDX-MS; inhibition of UDPG glucohydrolase and relief of substrate inhibition (UDP-Glo, purified enzyme). It is filed as binding.
Assay [4] has as its target T1, NbUGT72AY1. Briefly: ITC ([…] stoichiometry); co-crystal structures; HDX-MS; enzyme kinetics. It is filed as binding.
Assay [5] deals with T1, NbUGT72AY1. Briefly: HDX-MS; CD; inhibition of UDPG glucohydrolase and relief of substrate inhibition (UDP-Glo, purified enzyme). The class given is binding.

For the compound `O=c1ccn([C@@H]2O[C@H](COP(=O)(O)OP(=O)(O)O[C@H]3O[C@H](CO)[C@@H](O)[C@H](O)[C@H]3F)[C@@H](O)[C@H]2O)c(=O)[nH]1` [UDP2FG], the “X-ray co-crystal structure (ternary complex with scopoletin)” value in assay [1] is listed as “ternary complex V (NbUGT72AY1•scopoletin/UDP2FG: 9J9K) most of the protein residues are visible in the electron density maps”.
For `CC(C)=CCC/C(C)=C/C=C/C(C)=C/C=C/C(C)=C/C=C/C=C(C)/C=C/C=C(C)/C=C/C=C(\C)CCC=C(C)C` [lycopene], the “UDP-Glo glucosyltransferase assay, purified enzyme (reactivation of substrate-in)” value in assay [2] is “Even acyclic lycopene shows a concentration-dependent reactivation of the substrate-inhibited enzyme”.
Regarding `CC1=C(/C=C/C(C)=C/C=C/C(C)=C/CO)C(C)(C)CCC1` [retinol], in assay [3], the “HDX-MS; inhibition of UDPG glucohydrolase and relief of substrate inhibition (UD)” value was “concentration-dependent reactivation of the substrate-inhibited enzyme by β-carotene, β-apo-8’-carotenal, and retinol was detected”.
The Kd is the free concentration of one partner at which half of the binding sites on the other are occupied at equilibrium, for simple one-to-one binding. For `COc1cc2ccc(=O)oc2cc1O` [scopoletin], the dissociation constant (Kd) in assay [4] stood at 4.5 ± 1.1 µM.
As for `CC1=C(/C=C/C(C)=C/C=C/C(C)=C/C=C/C=C(C)/C=C/C=C(\C)C=O)C(C)(C)CCC1` [β-apo-8’-carotenal], the “HDX-MS; inhibition of UDPG glucohydrolase and relief of substrate inhibition (UD)” value in assay [3] was “concentration-dependent reactivation of the substrate-inhibited enzyme by β-carotene, β-apo-8’-carotenal, and retinol was detected”.
Turning to `CC1=C(/C=C/C(C)=C/C=C/C(C)=C/C=C/C=C(C)/C=C/C=C(C)/C=C/C2=C(C)CCCC2(C)C)C(C)(C)CCC1` [β-carotene], the “HDX-MS; CD; inhibition of UDPG glucohydrolase and relief of substrate inhibition” value in assay [5] is “with β-carotene being the most potent in suppressing glucohydrolase activity in accordance with its strong inhibition of SI”.
